Data set [1] deals with Uterine Eosinophil Peroxidase (EPO). The data set is described as follows: Uterine Eosinophil Peroxidase (EPO) Assay in ovariectomized rats. It is filed as in vivo, Sprague Dawley rats. The settings on record: for Serum Eosinophil (Vmax): oral, daily for 4 days, eosinophil peroxidase Vmax. The source says:
(§1) Seventy-five day old female Sprague Dawley rats (weight range of 200 to 225g) are obtained from Charles River Laboratories (Portage, MI). The animals are either bilaterally ovariectomized (OVX) or exposed to a Sham surgical procedure at Charles River Laboratories, and then shipped after one week. Upon arrival, they are housed in metal hanging cages in groups of 3 or 4 per cage and have ad libitum access to food (calcium content approximately 0.5%) and water for one week. Room temperature is maintained at 22.2° ± 1.7° C with a minimum relative humidity of 40%. The photoperiod in the room is 12 hours light and 12 hours dark.
(§2) Dosing Regimen Tissue Collection. After a one week acclimation period (therefore, two weeks post-OVX) daily dosing with test compound is initiated. 17α-ethynyl estradiol or the test compound is given orally, unless otherwise stated, as a suspension in 1% carboxymethylcellulose or dissolved in 20% cyclodextrin. Animals were dosed daily for 4 days. Following the dosing regimen, animals are weighed and anesthetized with a ketamine: Xylazine (2:1, V:V) mixture and a blood sample is collected by cardiac puncture. The animals are then sacrificed by asphyxiation with CO2, the uterus is removed through a midline incision, and a wet uterine weight is determined.
Uterine Eosinophil Peroxidase (EPO) Assay. Uteri are kept at 4° C until time of enzymatic analysis. The uteri are then homogenized in 50 volumes of 50 mM Tris buffer (pH - 8.0) containing 0.005% Triton X-100. Upon addition of 0.01% hydrogen peroxide and 10 mM O-phenylenediamine (final concentrations) in Tris buffer, increase in absorbance is monitored for one minute at 450 nm. The presence of eosonophils in the uterus is an indication of estrogenic activity of a compound. The maximal velocity of a 15 second interval is determined over the initial, linear portion of the reaction curve.

Data set [2] concerns ovariectomized rats. Kind of data set: Osteoporosis Test Procedure: femur density in ovariectomized rats, 35-day dosing. It is filed as in vivo, Sprague Dawley rats. Particulars: oral, in 20% hydroxypropyl β-cyclodextrin, daily for 35 days. The source says: Seventy-five day old female Sprague Dawley rats (weight range of 200 to 225g) are obtained from Charles River Laboratories (Portage, MI). The animals are either bilaterally ovariectomized (OVX) or exposed to a Sham surgical procedure at Charles River Laboratories, and then shipped after one week. Upon arrival, they are housed in metal hanging cages in groups of 3 or 4 per cage and have ad libitum access to food (calcium content approximately 0.5%) and water for one week. Room temperature is maintained at 22.2° ± 1.7° C with a minimum relative humidity of 40%. The photoperiod in the room is 12 hours light and 12 hours dark. Following the General Preparation Procedure, infra, the rats are treated daily for 35 days (6 rats per treatment group) and sacrificed by carbon dioxide asphyxiation on the 36th day. The 35 day time period is sufficient to allow maximal reduction in bone density, measured as described herein. At the time of sacrifice, the uteri are removed, dissected free of extraneous tissue, and the fluid contents are expelled before determination of wet weight in order to confirm estrogen deficiency associated with complete ovariectomy. […] The right femurs are excised and digitilized x-rays generated and analyzed by an image analysis program (NIH image) at the distal metaphysis. The proximal aspect of the tibiae from these animals are also scanned by quantitative computed tomography. […]

Data set [3] has as its system ovariectomized rats. The data set is described as follows: Uterine weight in ovariectomized rat post-menopausal model, 4-day oral dosing. It counts as in vivo, Sprague Dawley rats. The settings on record: for Increase in Uterine Weight (%): daily for 4 days, versus ovariectomized controls. The protocol:
In the examples illustrating the methods, a post-menopausal model was used in which effects of different treatments upon circulating lipids were determined.
as §1, §2

The subject of the next data set is Serum cholesterol. The data set is described as follows: Serum cholesterol analysis in ovariectomized rats (hyperlipidemia). The settings on record: oral; for Decrease in Cholesterol (%): daily for 4 days, serum cholesterol versus ovariectomized controls. It counts as in vivo, Sprague Dawley rats.
From the text: as §1, §2
Cholesterol Analysis. Blood samples are allowed to clot at room temperature for 2 hours, and serum is obtained following centrifugation for 10 minutes at 3000 rpm. Serum cholesterol is determined using a Boehringer Mannheim Diagnostics high performance cholesterol assay. Briefly the cholesterol is oxidized to cholest-4-en-3-one and hydrogen peroxide. The hydrogen peroxide is then reacted with phenol and 4-aminophenazone in the presence of peroxidase to produce a p-quinone imine dye, which is read spectrophotemetrically at 500 nm. Cholesterol concentration is then calculated against a standard curve. The entire assay is automated using a Biomek Automated Workstation.

Data set [4] has as its system MCF-7 breast adenocarcinoma cells. The data set is described as follows: MCF-7 Proliferation Assay (tritiated thymidine incorporation). It is filed as cell-based. The settings on record: Homo sapiens, MCF7; 48 hours with drug, 4 hours tritiated thymidine pulse; read-out: IC50, inhibition of the growth of MCF-7 cells. The protocol:
MCF-7 breast adenocarcinoma cells (ATCC HTB 22) are maintained in MEM (minimal essential medium, phenol red-free, Sigma, St. Louis, MO) supplemented with 10% fetal bovine serum (FBS) (V/V), L-glutamine (2 mM), sodium pyruvate (1 mM), HEPES {(N-[2-hydroxyethyl]piperazine-N'-[2-ethanesulfonic acid]10 mM}, non-essential amino acids and bovine insulin (1 ug/mL) (maintenance medium). Ten days prior to assay, MCF-7 cells are switched to maintenance medium supplemented with 10% dextran coated charcoal stripped fetal bovine serum (DCC-FBS) assay medium) in place of 10% FBS to deplete internal stores of steroids. MCF-7 cells are removed from maintenance flasks using cell dissociation medium (Ca^++/Mg^++ free HBSS (phenol red-free) supplemented with 10 mM HEPES and 2 mM EDTA). Cells are washed twice with assay medium and adjusted to 80,000 cells/mL. Approximately 100 µL (8,000 cells) are added to flat-bottom microculture wells (Costar 3596) and incubated at 37° C in a 5% CO2 humidified incubator for 48 hours to allow for cell adherence and equilibration after transfer. Serial dilutions of drugs or DMSO as a diluent control are prepared in assay medium and 50 µL transferred to triplicate microcultures followed by 50 µL assay medium for a final volume of 200 µL. […] Samples are counted by liquid scintillation using a Wallac BetaPlace β counter. […]

[5] abbreviates: ovariectomized rats, EE2 at 0.1 mg/kg/day.

Consider 2 molecules from EP0801066A1, “Heterocyclic substituted benzothiophenes and pharmaceutical compositions” (ELI LILLY AND COMPANY, priority 1996, dated 1997).

Marks after values point to notes of the source that are not given here.

`C#C[C@]1(O)CC[C@H]2[C@@H]3CCc4cc(O)ccc4[C@H]3CC[C@@]21C` [EE2, 17-a-ethynyl estradiol, reference compound]: in data set [1] (dose 0.1 mg/kg), the “Serum Eosinophil (Vmax)” value was 211.1*. In addition, in data set [1] (stromal layer of ovariectomized rat uteri), the “eosinophil infiltration into the uterus (in words)” value was “substantial and expected increase in eosinophil infiltration”. Besides, in the data set on ovariectomized rats [2], the “bone loss / reduction in femur density after ovariectomy (in words)” value is “prevented this loss”. The “Increase in Uterine Weight (%)” value in the data set on ovariectomized rats [3] (dose 0.1 mg/kg) was 182.1* %. Moreover, in the data set on ovariectomized rats [3] (setting [5]), the “uterine weight compared to the ovariectomized animals (in words)” value is on record as “substantially greater than the uterine weight of the ovariectomized animals”. In the data set with Serum cholesterol (dose 0.1 mg/kg), the “Decrease in Cholesterol (%)” value was 87.4* %. Further, the “serum cholesterol compared to the ovariectomized animals (in words)” value with Serum cholesterol (setting [5]) is listed as “caused a decrease in serum cholesterol”.
Turning to `O=C(c1ccc(OCCN2CCCCC2)nc1)c1c(-c2ccc(O)cc2)sc2cc(O)ccc12` [Prep. 1, [2-(4-Hydroxyphenyl)-6-hydroxybenzo[b]thien-3-yl][2-[2-(1-piperidinyl)ethoxy]pyridin-5-yl]methanone], the “Serum Eosinophil (Vmax)” value is recorded as 48.0* in data set [1] (dose 0.1 mg/kg), 70.5* in data set [1] (dose 1.0 mg/kg) and 55.8* in data set [1] (dose 10.0 mg/kg). The half-inhibitory concentration (IC50) in data set [4] turned out to be 10 nM. Also, the “Increase in Uterine Weight (%)” value is on record as 80.3* % in the data set with ovariectomized rats [3] (dose 0.1 mg/kg), 91.4* % with ovariectomized rats [3] (dose 1.0 mg/kg) and 80.8* % with ovariectomized rats [3] (dose 10.0 mg/kg). Besides, the results for the “Decrease in Cholesterol (%)” value in the data set with Serum cholesterol (dose 0.1 mg/kg), in the data set on Serum cholesterol (dose 1.0 mg/kg) and in the data set with Serum cholesterol (dose 10.0 mg/kg) were 57.1* %, 66.1* % and 61.7* %, respectively.
